# Reference: ChEMBL document CHEMBL5390285, “Isolation and In Vitro and In Vivo Activity of Secondary Metabolites from Clerodendrum polycephalum Baker against Plasmodium Malaria Parasites” (J Nat Prod, 2023)
# Tests used:
# Plasmodium falciparum = experiment: Antiplasmodial activity against synchronized ring stage Plasmodium falciparum 3D7 infected in human erythrocytes assessed as inhibition of parasite proliferation preincubated for 48 hrs followed by [3H]-hypoxanthine incorporation and measured after 24 hrs by microbeta liquid scintillation counter analysis; type: functional, organism-based
# [1] = Cytotoxicity against human NFF cells assessed as growth inhibition incubated for 72 hrs by SRB assay; type: toxicity, cell-based
# Plasmodium berghei [2] = experiment: In vivo antimalarial activity against Plasmodium berghei NK65 infected in Swiss albino mouse assessed as reduction in parasitemia in erythrocytes at 20 mg/kg, po administered once daily for 4 days and measured on day 5 post-infection by Giemsa staining based microscopic analysis relative to control; type: functional; design: scale not given: the % may be the effect or the level left; conditions: time 4 day
# Plasmodium berghei [3] = experiment: (§1) In vivo antimalarial activity against Plasmodium berghei NK65 infected in Swiss albino mouse assessed as reduction in parasitemia in erythrocytes at 10 mg/kg, po administered once daily for 4 days and measured on day 5 post-infection by Giemsa staining based microscopic analysis relative to control; type: functional; design: scale not given: the % may be the effect or the level left; conditions: time 4 day
# Plasmodium berghei [4] = experiment: as §1, with “chemosuppression of parasite” for “reduction in parasitemia”; type: functional; conditions: time 4 day
# [5] = Selectivity index, ratio of IC50 for cytotoxicity against human NFF cells to the IC50 for antiplasmodial activity against Plasmodium falciparum 3D7 infected in human erythrocytes; type: toxicity, cell-based; conditions: read-out: Ratio IC50
# Plasmodium berghei [6] = experiment: In vivo antimalarial activity against Plasmodium berghei NK65 infected in Swiss albino mouse assessed as chemosuppression of parasite in erythrocytes at 20 mg/kg, po once daily for 4 days and measured on day 5 post-infection by Giemsa staining based microscopic analysis relative to control; type: functional; conditions: time 4 day
smiles,measurement,setting,value
CC1(C)CCC[C@@]2(C)C1=C(O)C(=O)c1c2c(O)c2oc(CO)cc2c1O,IC50,Plasmodium falciparum,30 µM
CC(=O)OC[C@@]12[C@@H](OC(C)=O)C[C@@H](C)[C@](C)(CCC3CCOC3=O)[C@H]1CCC[C@@]2(O)CCl (some centres not stated),IC50,Plasmodium falciparum,> 50 µM
CC(=O)OC[C@@]12[C@@H](OC(C)=O)C[C@@H](C)[C@](C)(CCC3CCOC3=O)[C@H]1CCC[C@@H]2C=O (some centres not stated),IC50,Plasmodium falciparum,27.8 µM
C=CC1=C(C)C2=NC/1=C\C1=NC(=C\C3=C(C)C4=C(O)[C@H](C(=O)OC)/C(=C5/N/C(=C\2)[C@@H](C)[C@@H]5CCC(=O)OC)C4=N3)/C(CC)=C1C,IC50 at 72 h,[1],> 50 µM
same,Activity,Plasmodium berghei [2],1.5%
same,Activity,Plasmodium berghei [3],2.52%
same,Activity,Plasmodium berghei [4],79%
same,selectivity ratio,[5],> 11
same,IC50,Plasmodium falciparum,4.49 µM
same,Activity,Plasmodium berghei [6],87%
CC1(C)CCC[C@]2(C)c3c(c(O)c4cc(CO)oc4c3O)C(=O)C[C@@H]12,IC50,Plasmodium falciparum,> 40 µM
CC(=O)OC[C@@]12[C@@H](OC(C)=O)C[C@@H](C)[C@](C)(CCC3CCOC3=O)[C@H]1CCC[C@@]21CO1 (some centres not stated),IC50,Plasmodium falciparum,> 50 µM
COc1ccc(-c2cc(=O)c3c(O)cc(O)cc3o2)cc1 [ACACETIN],IC50,Plasmodium falciparum,< 40 µM
CCN(CC)CCCC(C)Nc1ccnc2cc(Cl)ccc12 (configuration not stated) [CHLOROQUINE],IC50 at 72 h,[1],31.7 µM
same,Activity,Plasmodium berghei [3],1.78%
same,Activity,Plasmodium berghei [4],85%
CC1(C)C[C@H](O)C[C@@]2(C)OC(=O)C=C12 [LOLIOLIDE],IC50,Plasmodium falciparum,> 50 µM
